Results reported in patent US20220117989A1, “COMPOSITIONS AND METHODS FOR INDUCING OR SUPPLEMENTING SOCS3 TO ABROGATE TUMOR GROWTH AND PROLIFERATIVE RETINOPATHY” (Children's Medical Center Corporation, priority 2019, published 2022).
Read-outs that look alike come from different tables or passages of the source.

How the values were obtained:
tumors = assay: FACS of immune cells isolated from tumors treated with Naringenin or vehicle control; format: in vivo
Method: FIG. 45 is a series of plots quantifying the tumor volume, total tumor cells isolated from tumors, total CD45 positive cells and percentage of CD45 positive cells vs. total cells in control- or Naringenin-treated tumors. 1,2,3,4,5 represents the individual tumor in each group. In order to determine whether Naringenin influences the infiltrating of different immune cell types into tumors, fluorescence-activated cell sorting (FACS) was conducted on cells isolated from tumors treated with Naringenin or vehicle control.

Socs3 = Socs3 levels after naringenin administration to tumor-bearing mice; format: in vivo, mouse
Source text: The surprising efficacy of localized Socs3 overexpression in reducing tumor growth prompted interest in identifying compounds capable of up-regulating Socs3. One candidate molecule for up-regulation of Socs3 was Naringenin, a flavanone compound. […] Naringenin administration was also observed to have shrunk tumors at the day 12-13 timepoint examined, with 100% of tumors of Socs3f/f mice and 60% of tumors in Socs3 nestin conditional knockout mice observed to have shrunk at day 13 of the timecourse (FIGS. 18B and 18C).

[1] = system: Lewis lung carcinoma cell line; assay: Lewis lung carcinoma (LLC) cells implanted in Socs3f/f and Socs3 Nestin ko mice, tumor growth curves; format: in vivo, mouse
[2] = system: tumor associated macrophages; assay: FACS analysis of tumor macrophage populations (M1, M2, TIDC); format: in vivo, mouse
Source text: The impact of the above-recited modes of Socs3 modulation upon monocyte differentiation was examined (FIGS. 20-26), employing FACS analysis of monocyte populations (FIG. 20 provides an overview of the FACS approach, where green cells were positively charged and therefore sorted towards an anode plate while negatively charged red cells were sorted toward a […]).

[3] = system: B16F10-Luciferase Melanoma cell line; format: in vivo, mouse
tumor cell = conditions: mouse, in vivo
LLC tumor = format: in vivo, mouse; conditions: as compared to PBS-treated controls
Source text: The effect of donepezil treatment was also examined in wild-type, heterozygote alpha-7 AChR knockout mice and homozygote alpha-7 AChR knockout mice (FIG. 40A).

[4] = agent administered to model mice, versus control animals

Q: For `O=C1C[C@@H](c2ccc(O)cc2)Oc2cc(O)cc(O)c21` [Naringenin], which “population of CD4+ T cells in the tumors” value (tumors; Naringenin treatment) is on record?
A: Its value is “did not change”.

Q: What about the “percentage of CD45+ γδ T cells” value (tumors; Naringenin-treated group) of the same molecule?
A: Its value is “increased”.

Q: What about the “CD8+ T cell recruitment into tumors” value (tumors; Naringenin-treated tumors) of the same molecule?
A: The value was “variations”.

Q: What about the “percentage of natural killer (NK) cells of CD45+ cells” value (tumors; compared to the control-treated group) of the same molecule?
A: The value was “higher”.

Q: What about the “tumors, based on tumor volume and total cells isolated from the entire tumors” value (tumors; compared with control group) of the same molecule?
A: The value was “significantly suppressed”.

Q: And the Socs3 levels (Socs3)?
A: Its Socs3 levels is “increased Socs3 levels”.

Q: What about the “tumors observed to have shrunk, Socs3f/f mice” value ([1]; day 13 of the timecourse, Socs3f/f mice) of the same molecule?
A: The value was 100%.

Q: What about the “tumors observed to have shrunk, Socs3 nestin conditional knockout mice” value ([1]; day 13 of the timecourse, Socs3 nestin conditional knockout mice) of the same molecule?
A: Its value is 60%.

Q: What about the “tumor growth, naringenin administration” value ([1]; treatment administered on day 4, Socs3-containing and Socs3 nestin conditional knockout mice) of the same molecule?
A: The value was “significantly decreased tumor growth”.

Q: What about the M1 macrophage levels ([2]; Socs3 neuronal deficient tumor) of the same molecule?
A: Its M1 macrophage levels is “promote M1 macrophage levels”.

Q: What about the M2 macrophage levels ([2]; Socs3 neuronal deficient tumor) of the same molecule?
A: The M2 macrophage levels was “reducing M2 macrophage levels”.

Q: And the M1 macrophage levels ([2]; wild-type tumor)?
A: Its M1 macrophage levels is “promoted M1 macrophage levels”.

Q: What about the M2 macrophage levels ([2]; wild-type tumor) of the same molecule?
A: Its M2 macrophage levels is “did not change M2 macrophage levels”.

Q: For alpha-bungarotoxin [a-BTX], which “tumor growth, LLC tumor cells” value ([1]; mouse, in vivo) is on record?
A: Its value is “promoted tumor growth”.

Q: And the “tumor growth, B16F10 tumor cells” value ([3]; mouse, in vivo)?
A: Its value is “promoted tumor growth”.

Q: What about the “TIDC population (CD45+; F4/80+; CD11c+ cells)” value ([2]; mouse, in vivo) of the same molecule?
A: The value was “contracted”.

Q: Botulinum toxin [Botox] was tested. Which “tumor growth, nestin-conditional Socs3 knockout mice” value (tumor cell) did it give?
A: Its value is “no additional effect on tumor growth”.

Q: And the “tumor growth, wild-type mice” value (tumor cell)?
A: The value was “effectively mimicked the tumor growth effect of nestin-conditional Socs3 knockout”.

Q: What about the tumor seeding (tumor cell) of the same molecule?
A: The tumor seeding was “promoted tumor seeding”.

Q: Which “tumor growth, LLC tumor cells” value [1, 4] does the source give for `O=C1NC[C@@]2(CN3CCC2CC3)O1` [AR-R17779, (2S)-2′H-spiro[4-azabicyclo[2.2.2]octane-2,5′-[1,3]oxazolidin]-2′-one] here?
A: The value was “significantly prevented tumor growth”.

Q: What about the tumor size ([1]; day 10 post-implantation in model mice) of the same molecule?
A: Its tumor size is “decreased tumor size”.

Q: What about the M1 macrophage levels ([2]; Socs3 neuronal deficient tumor) of the same molecule?
A: The M1 macrophage levels was “promoted M1 macrophage levels”.

Q: And the M2 macrophage levels ([2]; Socs3 neuronal deficient tumor)?
A: Its M2 macrophage levels is “not promoting M2 macrophage levels”.

Q: What about the M1 macrophage levels ([2]; wild-type tumor) of the same molecule?
A: The M1 macrophage levels was “promoted M1 macrophage levels”.

Q: And the M2 macrophage levels ([2]; wild-type tumor)?
A: The M2 macrophage levels was “did not change M2 macrophage levels”.

Q: How did the “tumor growth, LLC tumor cells” value [1, 4] turn out when `COc1cc2c(cc1OC)C(=O)C(CC1CCN(Cc3ccccc3)CC1)C2` (stereo not shown) [donepezil] was run?
A: The value was “prevented tumor growth”.

Q: And the “tumor growth, B16F10 tumor cells” value [3, 4]?
A: Its value is “prevented tumor growth”.

Q: What about the “F4/80+/CD11c+ (M1 macrophage) cells” value ([2]; mouse, in vivo) of the same molecule?
A: The value was “expanded population”.

Q: And the “TIDC population (CD45+; F4/80+; CD11c+ cells)” value ([2]; mouse, in vivo)?
A: The value was “expanded”.

Q: And the “tumor growth rate, homozygous alpha-7 AChR knockout mice” value (LLC tumor)?
A: Its value is “robust reduction of tumor growth rate”.

Q: What about the “tumor growth, heterozygote alpha-7 AChR knockout mice” value (LLC tumor) of the same molecule?
A: The value was “significant reduction in tumor growth”.
